Data from patent US10973810B2, “Methods for the treatment of neurological disorders” (Yumanity Therapeutics, Inc., priority 2017, dated 2021).

Experiments:
Assay type in all cases: cell-based
[1] = test system: A53T α-synuclein transfected human iPSC-derived neurons; test: Neuron survival, A53T α-synuclein transfected human iPSC-derived neurons; conditions: all tested concentrations (3 μM to 0.3 μM); relative to DMSO controls
Method: FIG. 16 is a graph illustrating that non-selective SCD reference inhibitor, CAY10566, reduces risk of death in A53T α-synuclein transfected human iPSC-derived neurons. Human iPSC-derived neurons were co-transfected with a fluorescence reporter plasmid encoding RFP (morphology tracer) and control plasmid (empty) or plasmid containing α-synuclein-A53T mutation (syn-A53T). Neuron groups as indicated were treated with either DMSO or CAY10566 at the indicated doses. The lifetimes of single neurons were tracked over time based on either loss of RFP fluorescence signal or morphological indicators of neuron death such as loss of neurites or cell blebbing. […] Cox proportional hazard analysis was used to estimate relative risk of death, or hazard ratio (HR) and the P value was determined by the logrank test. […]
FIG. 17 is a graph illustrating that an SCD5-selective inhibitor reduces risk of death in A53T α-synuclein transfected human iPSC-derived neurons. Human iPSC-derived neurons were co-transfected with a fluorescence reporter plasmid encoding RFP (morphology tracer) and control plasmid (empty) or plasmid containing α-synuclein-A53T mutation (syn-A53T). […] The lifetimes of single neurons were tracked over time based on either loss of RFP fluorescence signal or morphological indicators of neuron death such as loss of neurites or cell blebbing. […]

[2] = target: T1, yeast OLE1 (Saccharomyces cerevisiae, UniProt P21147, L450T/T449L); test: Growth of yeast surviving solely on yeast OLE1; conditions: 24 h
T1 construct: expressed in transfected cells; host or cells: S. cerevisiae ole1Δ strain (W303 pdr1Δ pdr3Δ background), plasmid pRS316 with TDH3 promoter and CYC1 terminator
Excerpt: To generate yeast strains expressing SCD1 or SCD5 as the sole desaturase, the human SCD1 and SCD5 genes were cloned from cDNAs (Harvard PlasmID database Clone ID HsCD00340237 for SCD1 and HsCD00342695 for SCD5) into yeast plasmid pRS316 (ATCC 77145) between the yeast TDH3 promoter and the CYC1 terminator. The coding sequence of yeast OLE1 was also cloned into this plasmid). These clones were then transformed into the ole1d strain and plated on CSM-Ura media (CSM lacking uracil) with 2% glucose (w/v) and independent colonies were isolated and amplified.
For experiments using a plasmid-borne copy of Ole1, SCD1, or SCD5 (FIGS. 3B, 6, and 7), media lacking uracil (SX-Ura, where X is glucose, raffinose, or galactose), was used for all steps of the compound profiling protocol to ensure its maintenance throughout the assay.
After yeast delivery, assay plates were incubated under humidified conditions at 30° C. for 24 to 40 h. ApoE4 rescue experiments were stopped at 24 h, aSyn experiments at 40 h, Ole1 at 24 h, and SCD1/SCD5 at 40 h. The growth of yeast was monitored by reading the OD600 of each well using a microplate reader (Perkin Elmer EnVision™). For model rescue experiments, raw data were processed by background subtracting and calculating a fold-change relative to DMSO control [(EXP-0.035)/(DMSO-0.035)—where 0.035 is the OD600 contributed by an empty well containing 30 μL of media alone]. For growth inhibition of wild-type cells, raw data were processed by background subtracting and converting values to a percent of the nontreated condition for that strain [(EXP-0.035)/(DMSO-0.035)×100%].

[3] = test system: alpha-synuclein (A53T) transfected rat cortical neurons; test: Neurite degeneration assay in transfected rat cortical neurons
Method: Rat primary cortical neurons cultured in 96-well plates (Greiner Bio-One) were co-transfected with a fluorescence reporter plasmid (encoding mKate2) and empty or alpha-synuclein-A53T overexpression plasmids by lipofection at 5-6 div (days in vitro). LIPOFECTAMINE® 2000 transfection reagent (Thermo Fisher) (0.5 μl/well) was diluted in NEUROBASAL® media (Thermo Fisher) and incubated for 5-10 min. The LIPOFECTAMINE®/NEUROBASAL® mixture was then added dropwise to a plasmid cocktail diluted in NEUROBASAL® media, and incubated for approximately 40 min. During this time, conditioned media on the neurons was replaced with media containing 1× kynurenic Acid (Sigma-Aldrich) in NEUROBASAL® media (NBKY). LIPOFECTAMINE®/DNA complex solutions were subsequently added dropwise to neurons in the NBKY media in the 96-well plate. Lipofection was carried out for 30-40 min in a standard cell culture incubator (37° C., 5% CO2). Neurons were then washed with NEUROBASAL® media, and 50% conditioned/50% fresh NEUROBASAL® media containing B-27 supplement and GlutaMax™ (Thermo Fisher) (NBM) was applied to the cultures.
Transfected rat cortical neuron cultures were treated with DMSO or CAY10566 compound 4-6 h post-transfection. […] Neurite lengths of transfected neurons were tracked by an RFP reporter, mKate2, and measured by NeuroTrack™ Software Module (Essen Bioscience). […]

T1 sequence (P21147 whole entry T449L/L450T): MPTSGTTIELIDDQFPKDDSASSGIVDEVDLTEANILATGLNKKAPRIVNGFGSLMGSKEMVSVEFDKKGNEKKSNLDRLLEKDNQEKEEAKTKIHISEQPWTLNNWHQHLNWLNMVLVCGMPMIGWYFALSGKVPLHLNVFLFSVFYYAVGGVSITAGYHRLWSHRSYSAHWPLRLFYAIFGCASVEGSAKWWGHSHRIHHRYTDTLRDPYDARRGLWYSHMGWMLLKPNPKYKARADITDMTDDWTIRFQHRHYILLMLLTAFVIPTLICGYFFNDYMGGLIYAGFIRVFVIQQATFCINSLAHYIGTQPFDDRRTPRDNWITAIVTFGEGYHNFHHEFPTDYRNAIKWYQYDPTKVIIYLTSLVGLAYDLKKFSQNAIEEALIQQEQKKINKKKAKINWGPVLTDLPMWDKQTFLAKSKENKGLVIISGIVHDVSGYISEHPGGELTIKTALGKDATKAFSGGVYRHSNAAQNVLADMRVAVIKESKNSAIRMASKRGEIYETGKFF

## Cc1nnc(-c2ccc(N3CCC(Oc4cc(F)ccc4Cl)CC3)nn2)o1 [CAY10566]
[1]
  risk of neuron death: significantly reduced
[2]
  growth of yeast strain expressing Ole1 (percent of DMSO-treated condition): resistant
[3]; 10 nM and 3 nM, overlapping with control cultures not transfected with alpha-synuclein A53T
  neurite degeneration at highest concentrations: complete rescue
[3]; titration from 10 nM down to 10 pM, tracked every 6 h for 7 d, relative to DMSO
  neurite degeneration: concentration-dependent decrease in neurite degeneration
